{"source": "patent US10031128B2", "about": "“Screening method, screening kit and analysis program” (National Institutes for Quantum and Radiological Science …, priority 2012, dated 2018)", "test_system": "rat thymocytes", "format": "cell-based", "conditions": "4 h, pH 6.8", "experimental": "As Example 1, an example using thymocytes as lymphoid cells will be described. In this example, rat thymocytes are used. A rat is suited for studies of screening and the like because a rat has the thymus larger than that of a mouse, and a large quantity of thymocytes corresponding to 2000 to 20000 samples is obtained from one rat.\n(1) First, extract the thymus surgically from a rat.\n(2) The extracted thymus is washed lightly in PBS. This washing may be performed for 1 minute to 5 minutes, and actually for 2 minutes to 3 minutes merely for washing out excess blood or tissues.\n(3) The washed thymus is put into a RPMI 1640 medium supplemented with approximately 10% FBS (fetal bovine serum) (having subjected to an inactivation treatment). As the inactivation treatment, a heat treatment at 56° C. is performed for 30 minutes. In the example, the RPMI 1640 medium is 500 ml (ml is a unit symbol for milliliter, the same shall apply hereinafter), and FBS is 55 ml. Thereafter, the thymocytes are kept in the RPMI 1640 medium supplemented with serum to improve the separating ability of the presence or absence of condensation, and improve the measurement accuracy.\n(4) Thymocytes are squeezed out of the thymus with tweezers, and passed through mesh to remove unnecessary contaminants and to disassemble the thymocytes. The culture temperature during this treatment is 4° C., and pH is 6.8. The amount of the medium used during cell purification is approximately 20 ml.\n(5) The number of cells is counted, and a required number of the cells are seeded on a plate. In the experiment of this example, 5×10^5 cells/well are seeded using a 48-well plate. Also, since measurement is performed for about 20 samples in the experiment of this example, approximately 10 ml of a medium is used. As the medium, a medium of the volume conforming to the container is required. For example, when a 48-well plate is used, approximately 500 μl/well (microliter per well) is required in seeding cells on the plate. When a 96-well plate is used, approximately 50 to 200 μl/well is required in seeding cells on the plate. When one 96-well plate is used, up to approximately 20 ml of a medium is required.\nIn this example, (I) irradiation with 2 Gy X-ray, (II) administration with a 1 mM (mM is a unit symbol for millimolar, the same shall apply hereinafter) catechin derivative, (III) preliminary administration with a 1 mM catechin derivative and irradiation with 2 Gy X-ray, (IV) administration with 100 μM epigallocatechin (μM is a unit symbol for micromolar, the same shall apply hereinafter), (V) administration with 10 μM vitamin C, or (VI) administration with 100 μM vitamin C was performed. The temperature of the medium in performing this treatment can be 4° C. to room temperature, and is preferably approximately 4° C. so as not to promote the reaction. Gray (Gy) is a unit for absorbed dose of radiation. The absorbed dose when 1 joule of radiation energy is absorbed in 1 kilogram of a substance by radiation is defined as 1 gray.\nThe samples of (I) to (VI) in Step 2 were incubated for 4 hours. During the incubation, the medium is at a temperature of 37° C., at a CO2 concentration of 5%, under humidification, and at pH 6.8.\nAfter the incubation in Step 3, measurement was performed by using FACSCALIBUR™ (a flow cytometry system). The time required for the measurement is about one hour. […]\nFIG. 2(A) to FIG. 2(D), and FIG. 3(A) to FIG. 3(D) are cell size measurement graphs showing measured cell sizes. […]", "note": "Where two headings read alike, the source gives them in different places."}
{"smiles": "Oc1cc(O)c2c(c1)O[C@H](c1cc(O)c(O)c(O)c1)[C@H](O)C2", "note": "[epigallocatechin]", "values": [{"measurement": "peak of cell size (cell size measurement graph)", "setting": "100 μM", "value": "around 300"}]}
{"smiles": "O=C1O[C@H]([C@@H](O)CO)C(O)=C1O", "note": "[vitamin C]", "values": [{"measurement": "another peak at apoptotic cell peak position (cell size)", "setting": "10 μM", "value": "around 250"}, {"measurement": "peak of cell size (cell size measurement graph)", "setting": "10 μM", "value": "around 400"}, {"measurement": "another peak at apoptotic cell peak position (cell size)", "setting": "100 μM", "value": "around 250"}, {"measurement": "peak of cell size (cell size measurement graph)", "setting": "100 μM", "value": "around 400"}]}
